Measurements published in patent US8530663B2, “1-(2-phenoxymethylheteroaryl)piperidine and piperazine compounds” (Theravance, Inc., priority 2010, dated 2013).
Marks after values point to notes of the source that are not given here.

What was measured:
hSERT [1] = target: T1, hSERT (Homo sapiens, UniProt P31645); assay: hSERT membrane radioligand binding assay (3H-citalopram); conditions: hSERT membranes, 1.0 nM 3H-citalopram; for Ki: read-out: SERT pKi (converted)
T1 construct: expressed in transfected cells; host or cells: HEK-293
Procedure: (§1) Membrane radioligand binding assays were used to measure inhibition of labeled ligand (^3H-citalopram or ^3H-nisoxetine or ^3H-WIN35428) binding to membranes prepared from cells expressing the respective human recombinant transporter (hSERT or hNET or hDAT) in order to determine the pKi values of test compounds at the transporters.
(§2) Recombinant human embryonic kidney (HEK-293) derived cell lines stably transfected with hSERT or hNET, respectively, were grown in DMEM medium supplemented with 10% dialyzed FBS (for hSERT) or FBS (for hNET), 100 μg/ml penicillin, 100 μg/ml streptomycin, 2 mM L-glutamine and 250 μg/ml of the aminoglycoside antibiotic G418, in a 5% CO2 humidified incubator at 37° C. When cultures reached 80% confluence, the cells were washed thoroughly in PBS (without Ca^2+ and Mg^2+) and lifted with 5 mM EDTA in PBS. Cells were pelleted by centrifugation, resuspended in lysis buffer (10 mM Tris-HCl, pH7.5 containing 1 mM EDTA), homogenized, pelleted by centrifugation, then resuspended in 50 mM Tris-HCl, pH 7.5 and 10% sucrose at 4° C. Protein concentration of the membrane suspension was determined using a Bio-Rad Bradford Protein Assay kit. Membranes were snap frozen and stored at −80° C. Chinese hamster ovary membranes expressing hDAT (CHO-DAT) were purchased from PerkinElmer and stored at −80° C.
(§3) Binding assays were performed in a 96-well assay plate in a total volume of 200 μL assay buffer (50 mM Tris-HCl, 120 mM NaCl, 5 mM KCl, pH 7.4) with 0.5, 1, and 3 μg membrane protein, for SERT, NET and DAT, respectively.
(§4) Stock solutions (10 mM in DMSO) of test compound were prepared and serial dilutions made using Dilution Buffer (50 mM Tris-HCl, 120 mM NaCl, 5 mM KCl, pH 7.4, 0.1% BSA, 400 μM ascorbic acid).
(§5) Following a 60 minute incubation at 22° C. (or a period sufficient to reach equilibrium), the membranes were harvested by rapid filtration over a 96-well UniFilter GF/B plate, pretreated with 0.3% polyethyleneimine, and washed 6 times with 300 μl wash buffer (50 mM Tris-HCl, 0.9% NaCl, pH 7.5 at 4° C.). Plates were dried overnight at room temperature, ˜45 μl of MicroScint™-20 (Perkin Elmer) added and bound radioactivity quantitated via liquid scintillation spectroscopy. Inhibition curves and saturation isotherms were analyzed using GraphPad Prism Software package (GraphPad Software, Inc., San Diego, Calif.). IC50 values were generated from concentration response curves using the Sigmoidal Dose Response (variable slope) algorithm in Prism GraphPad. Kd and Bmax values for the radioligand were generated from saturation isotherms using the Saturation Binding Global Fit algorithm in Prism GraphPad. pKi (negative decadic logarithm of Ki) values for test compounds were calculated from the best-fit IC50 values, and the Kd value of the radioligand, using the Cheng-Prusoff equation (Cheng & Prusoff (1973) Biochem. Pharmacol. 22(23):3099-3108): Ki=IC50/(1+[L]/Kd), where [L]=concentration radioligand.

hNET [2] = target: T2, hNET (Homo sapiens, UniProt P23975); assay: hNET membrane radioligand binding assay (3H-nisoxetine); conditions: hNET membranes, 1.0 nM 3H-nisoxetine; for Ki: read-out: NET pKi (converted)
T2 construct: expressed in transfected cells; host or cells: HEK-293
Procedure: as §1, §2, §3, §4, §5

hSERT [3] = target: T1, hSERT; assay: hSERT neurotransmitter uptake assay (3H-5-HT); format: cell-based; conditions: serotonin reuptake inhibition, 3H-5-HT uptake, HEK-293 hSERT cells (no asterisk); for IC50: read-out: SERT pIC50 (converted)
Procedure: (§6) Neurotransmitter uptake assays were used to measure inhibition of ^3H-serotonin (^3H-5-HT), ^3H-norepinephrine (^3H-NE), and ^3H-dopamine (^3H-DA) uptake into cells expressing the respective transporter (hSERT, hNET or hDAT) in order to determine the pIC50 values of test compounds at the transporters.
(§7) HEK-293 derived cell lines stably-transfected with hSERT, hNET, or hDAT, respectively, were grown in DMEM medium supplemented with 10% dialyzed FBS (for hSERT) or FBS (for hNET and hDAT), 100 μg/ml penicillin, 100 μg/ml streptomycin, 2 mM L-glutamine and 250 μg/ml of the aminoglycoside antibiotic G418 (for hSERT and hNET) or 800 ug/ml (for hDAT), in a 5% CO2 humidified incubator at 37° C. When cultures reached 80% confluence, the cells were washed thoroughly in PBS (without Ca^2+ and Mg^2+) and lifted with 5 mM EDTA in PBS. Cells were harvested by centrifugation at 1100 rpm for 5 minutes, washed once by resuspension in PBS, then centrifuged. The supernatant was discarded and the cell pellet resuspended, by gentle trituration, in room temperature Krebs-Ringer bicarbonate buffer containing HEPES (10 mM), CaCl2 (2.2 mM), ascorbic acid (200 μM) and pargyline (200 μM), pH 7.4. The final concentration of cells in the cell suspension was 7.5×10^4 cells/ml, 1.25×10^5 cells/ml, and 5.0×10^4 cells/ml for SERT, NET, and DAT cell lines, respectively.
(§8) Stock solutions (10 mM in DMSO) of test compound were prepared and serial dilutions prepared using 50 mM Tris-HCl, 120 mM NaCl, 5 mM KCl, pH 7.4, 0.1% BSA, 400 μM ascorbic acid. Test compounds were incubated for 30 minutes at 37° C. with the respective cells, prior to addition of radiolabeled neurotransmitter, ^3H-5-HT (20 nM final concentration), ^3H-NE (50 nM final concentration), or ^3H-DA (100 nM final concentration).
(§9) Following a 10 minute incubation, at 37° C., with radioligand, the cells were harvested by rapid filtration over a 96-well UniFilter GF/B plate, pretreated with 1% BSA, and washed 6 times with 650 μl wash buffer (ice cold PBS). Plates were dried overnight at 37° C., ˜45 μl of MicroScint™-20 (Perkin Elmer) added and incorporated radioactivity quantitated via liquid scintillation spectroscopy. Inhibition curves were analyzed using GraphPad Prism Software package (GraphPad Software, Inc., San Diego, Calif.). IC50 values were generated from concentration response curves using the Sigmoidal Dose Response (variable slope) algorithm in Prism GraphPad.

hNET [4] = target: T2, hNET; assay: hNET neurotransmitter uptake assay (3H-NE); format: cell-based; conditions: norepinephrine reuptake inhibition, 3H-NE uptake, HEK-293 hNET cells (no asterisk); for IC50: read-out: NET pIC50 (converted)
Procedure: as §6, §7, §8, §9

hSERT [5] = target: T1, hSERT; assay: fluorescence-based serotonin reuptake assay (Tsuruda et al. 2010; data with asterisk); format: cell-based; conditions: serotonin reuptake inhibition, fluorescence-based assay (data indicated by an asterisk)
hNET [6] = target: T2, hNET; assay: fluorescence-based norepinephrine reuptake assay (Tsuruda et al. 2010; data with asterisk); format: cell-based; conditions: norepinephrine reuptake inhibition, fluorescence-based assay (data indicated by an asterisk)

T1 sequence (P31645 whole entry): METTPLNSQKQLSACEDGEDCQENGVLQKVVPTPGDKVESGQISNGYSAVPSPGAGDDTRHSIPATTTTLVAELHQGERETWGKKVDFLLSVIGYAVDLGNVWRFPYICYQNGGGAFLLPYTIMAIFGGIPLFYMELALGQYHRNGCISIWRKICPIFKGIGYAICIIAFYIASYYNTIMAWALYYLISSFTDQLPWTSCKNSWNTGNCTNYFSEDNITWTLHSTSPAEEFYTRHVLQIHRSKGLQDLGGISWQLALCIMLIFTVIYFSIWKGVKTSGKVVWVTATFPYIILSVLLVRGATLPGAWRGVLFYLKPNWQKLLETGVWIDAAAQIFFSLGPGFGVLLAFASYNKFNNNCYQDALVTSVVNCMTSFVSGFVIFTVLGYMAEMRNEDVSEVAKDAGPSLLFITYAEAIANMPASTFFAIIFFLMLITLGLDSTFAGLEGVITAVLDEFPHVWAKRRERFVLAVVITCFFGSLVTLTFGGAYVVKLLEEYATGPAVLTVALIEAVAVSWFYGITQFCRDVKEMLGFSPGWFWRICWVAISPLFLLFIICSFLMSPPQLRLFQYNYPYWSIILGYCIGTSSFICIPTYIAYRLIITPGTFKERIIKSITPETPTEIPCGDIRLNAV
T2 sequence (P23975 whole entry): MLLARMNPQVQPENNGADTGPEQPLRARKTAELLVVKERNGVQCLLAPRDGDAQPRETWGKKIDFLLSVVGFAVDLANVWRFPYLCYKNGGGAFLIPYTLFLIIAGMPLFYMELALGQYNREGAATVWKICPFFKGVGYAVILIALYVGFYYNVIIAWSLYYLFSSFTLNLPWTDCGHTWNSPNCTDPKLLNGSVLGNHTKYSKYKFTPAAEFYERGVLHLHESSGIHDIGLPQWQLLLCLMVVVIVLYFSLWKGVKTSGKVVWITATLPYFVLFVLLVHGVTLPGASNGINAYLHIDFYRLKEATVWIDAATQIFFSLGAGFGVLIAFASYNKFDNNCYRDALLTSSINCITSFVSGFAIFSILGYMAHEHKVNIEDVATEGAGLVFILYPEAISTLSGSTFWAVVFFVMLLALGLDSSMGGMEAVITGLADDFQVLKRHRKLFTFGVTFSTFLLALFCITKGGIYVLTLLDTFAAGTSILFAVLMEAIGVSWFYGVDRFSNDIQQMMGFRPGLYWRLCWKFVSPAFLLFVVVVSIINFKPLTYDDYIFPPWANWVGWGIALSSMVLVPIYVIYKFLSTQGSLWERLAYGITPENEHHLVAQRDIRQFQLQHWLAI

Compound	Ki (hSERT [1])	Ki (hNET [2])	IC50 (hSERT [3])	IC50 (hNET [4])	SERT pKi (hSERT [1])	NET pKi (hNET [2])	also measured
Fc1cc(F)c(OCc2ccncc2C2CCNCC2)c(F)c1 [Example 9, 4-(2,4,6-Trifluorophenoxymethyl)-1′,2′,3′,4′,5′,6′-hexahydro[3,4]bipyridinyl]	≤ 100 nM	≤ 100 nM	≤ 100 nM	≤ 100 nM	–	–	–
Fc1cc(F)c(OCc2cccnc2C2CCNCC2)c(F)c1 [Example 13, 3-(2,4,6-Trifluorophenoxymethyl)-1′,2′,3′,4′,5′,6′-hexahydro[2,4]bipyridinyl]	≤ 100 nM	≤ 100 nM	≤ 100 nM	≤ 100 nM	–	–	–
Clc1cccc(OCc2sccc2C2CCNCC2)c1 [Example 24, 4-[2-(3-Chlorophenoxymethyl)thiophen-3-yl]piperidine]	≤ 100 nM	≤ 100 nM	–	–	–	–	IC50 (hSERT [5]; read-out: SERT pIC50 (converted)): ≤ 100 nM; IC50 (hNET [6]; read-out: NET pIC50 (converted)): ≤ 100 nM
Fc1cccc(F)c1OCc1cscc1C1CCNCC1 [Example 27, 4-[4-(2,6-Difluorophenoxymethyl)thiophen-3-yl]piperidine]	≤ 100 nM	≤ 100 nM	≤ 100 nM	≤ 100 nM	–	–	–

Now from value to compound, other results behind:

Ki (hSERT [1])	Ki (hNET [2])	IC50 (hSERT [3])	IC50 (hNET [4])	SERT pKi (hSERT [1])	NET pKi (hNET [2])	Compound	also measured
–	–	–	–	≧7.0	≧7.0	Fc1cccc(Cl)c1OCc1ccncc1C1CCNCC1 [Example 10-4]	SERT pIC50 (hSERT [3]): ≧7.0; NET pIC50 (hNET [4]): ≧7.0
–	–	–	–	≧7.0	≧7.0	Fc1cc(F)c(OCc2cscc2C2CCNCC2)c(F)c1 [Example 28-3]	SERT pIC50 (hSERT [3]): ≧7.0; NET pIC50 (hNET [4]): ≧7.0
–	–	–	–	≧7.0	≧7.0	Clc1cccc(OCc2ccsc2C2CCNCC2)c1 [Example 31-2]	SERT pIC50 (hSERT [5]): ≧7.0*; NET pIC50 (hNET [6]): ≧7.0*
–	–	–	–	≧7.0	≧7.0	Fc1cc(F)c(OCc2ccsc2C2CCNCC2)c(F)c1 [Example 31-3]	SERT pIC50 (hSERT [5]): ≧7.0*; NET pIC50 (hNET [6]): ≧7.0*
